Experimental findings from ChEMBL document CHEMBL5634207, “Helical sulfonyl-γ-AApeptides for the inhibition of HIV-1 fusion and HIF-1α signaling” (RSC Med Chem, 2024) are described below.

The target in series [1] is Hypoxia-inducible factor 1-alpha (Homo sapiens, UniProt Q16665). The experiment in a line: Binding affinity to HIF-1alpha (unknown origin) assessed as dissociation constant.
Series [2] has as its system Human immunodeficiency virus 1. Briefly: Antiviral activity against HIV-1 IIIB infected in human MT2 cells incubated overnight by ELISA method. Format: functional, organism-based. As to conditions: Human immunodeficiency virus 1, MT2. In general terms: ELISA stands for enzyme-linked immunosorbent assay.
Series [3] is described as follows: Cytotoxicity against human MT2 cells. Format: toxicity, cell-based.

Chain of Hypoxia-inducible factor 1-alpha (Q16665 whole entry): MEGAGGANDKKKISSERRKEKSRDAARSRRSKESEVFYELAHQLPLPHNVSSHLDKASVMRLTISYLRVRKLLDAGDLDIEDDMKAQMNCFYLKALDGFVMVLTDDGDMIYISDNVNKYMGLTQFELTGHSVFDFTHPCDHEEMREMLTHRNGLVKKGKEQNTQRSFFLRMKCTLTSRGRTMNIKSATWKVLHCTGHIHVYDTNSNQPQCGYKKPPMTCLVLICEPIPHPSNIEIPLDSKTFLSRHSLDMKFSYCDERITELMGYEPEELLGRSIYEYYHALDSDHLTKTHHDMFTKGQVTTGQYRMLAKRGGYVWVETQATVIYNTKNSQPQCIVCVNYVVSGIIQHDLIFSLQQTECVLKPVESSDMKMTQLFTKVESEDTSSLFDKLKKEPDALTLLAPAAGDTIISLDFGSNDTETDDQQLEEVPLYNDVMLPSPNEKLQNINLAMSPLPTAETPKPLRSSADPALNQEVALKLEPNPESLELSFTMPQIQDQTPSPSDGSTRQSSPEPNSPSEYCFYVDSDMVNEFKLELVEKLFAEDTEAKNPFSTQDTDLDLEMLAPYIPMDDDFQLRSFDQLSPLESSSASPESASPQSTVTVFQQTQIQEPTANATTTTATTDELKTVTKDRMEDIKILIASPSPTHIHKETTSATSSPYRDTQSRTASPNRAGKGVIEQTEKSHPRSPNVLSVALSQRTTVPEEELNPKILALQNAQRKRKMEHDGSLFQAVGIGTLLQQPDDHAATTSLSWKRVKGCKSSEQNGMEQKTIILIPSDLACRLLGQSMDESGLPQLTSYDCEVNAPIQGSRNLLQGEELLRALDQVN

For orientation: Kd means the concentration at which binding is half-saturated. For the compound `CC(=O)N[C@@H](CCC(=O)O)CN(CC(=O)N[C@@H](CC(C)C)CN(CC(=O)N[C@@H](C)CN(CC(=O)N[C@@H](CCC(=O)O)CN(CC(=O)N[C@@H](CC(C)C)CN(CC(N)=O)S(=O)(=O)CC(C)C)S(C)(=O)=O)S(=O)(=O)CC(C)C)S(=O)(=O)CCN)S(=O)(=O)CC(C)C`, in series [1], the Kd was found to be 489 nM.

For the compound `CC(=O)N[C@@H](CC(C)C)CN(CC(=O)N[C@@H](CCC(=O)O)CN(CC(=O)N[C@@H](CC(C)C)CN(CC(=O)N[C@@H](CCCCN)CN(CC(=O)N[C@@H](CC(C)C)CN(CC(N)=O)S(=O)(=O)CCN)S(C)(=O)=O)S(C)(=O)=O)S(=O)(=O)CC(C)C)S(C)(=O)=O`, the Kd in series [1] was found to be 97 nM.

On to `CC(=O)N[C@@H](CCC(=O)O)C(=O)N[C@@H](CC(C)C)CN(CC(=O)N[C@@H](CC(C)C)CN(CC(=O)N[C@@H](CC(C)C)CN(CC(=O)N[C@@H](C)CN(CC(=O)N[C@@H](C)CN(CC(=O)N[C@@H](CCC(N)=O)C(N)=O)S(=O)(=O)CC(C)C)S(C)(=O)=O)S(=O)(=O)CC(C)C)S(=O)(=O)CCN)S(=O)(=O)CC(C)C`, for which, in series [1], the dissociation constant (Kd) was found to be 514 nM.

Consider Ac-EELLRALDQV-OH, for which the Kd in series [1] is > 10000 nM.

One may read the IC50 as the midpoint of a concentration-inhibition curve. Low values mean greater potency in that assay, high ones weaker potency in that assay. By CC50 is commonly meant the concentration giving 50% cytotoxicity. Regarding enfuvirtide, half-maximal inhibition in series [2] (IC50) was put at 36 nM. In addition, the CC50 in series [3] was > 100000 nM.
